Data set [1] can be described thus: body weight of mice during the SK-OV-3 xenograft efficacy study. Particulars: 5 mg/kg, six i.v. injections; 62nd day after tumor inoculation; mean ± STDEV of five mice. It is filed as in vivo, SCID mice. As for the experimental part: (§1) The table above illustrates the comparative efficacy study in SK-OV-3 s.c. xenograft SCID mouse model of ovary cancer. Tumor was induced in mice by implanting SK-OV-3 human ovary adenocarcinoma cells s.c. in upper region of back of SCID mice and allowing the tumors to develop to appreciable size over 24 days (70 mm3). The comparative efficacy study of six i.v. injection (day 24, 31, 38, 44, 51 and 58) of 5% glucose, paclitaxel (PACL) 5 mg/kg, NP-PACL 5 mg/kg and NP-PACL-OCT 1.7 mg/kg) was evaluated over 72 days. In this table there are: change in tumor volume of mice on 62nd day after tumor inoculation (data represent mean %±SEM of five mice per group), change in body weight of mice on 62nd day after tumor inoculation (Data represent mean±STDEV of five mice per group) and survival proportion at the end of the experiment.

Data set [2] relates to SK-OV-3 human ovary adenocarcinoma cells. Briefly: comparative efficacy study in SK-OV-3 s.c. xenograft SCID mouse model of ovary cancer. It is filed as in vivo, SCID mice. Particulars: 5 mg/kg. As for the experimental part: as §1

Molecules are shown by their SMILES.

With `CC(=O)O[C@H]1C(=O)[C@@]2(C)[C@H]([C@H](OC(=O)c3ccccc3)[C@]3(O)C[C@H](OC(=O)[C@H](O)[C@@H](NC(=O)c4ccccc4)c4ccccc4)C(C)=C1C3(C)C)[C@]1(OC(C)=O)CO[C@@H]1C[C@@H]2O` [PACL, (2α,4α,5β,7β,10β,13α)-4,10-bis(acetyloxy)-13-{[(2R,3S)-3-(benzoylamino)-2-hydroxy-3-phenylpropanoyl]oxy}-1,7-dihydroxy-9-oxo-5,20-epoxytax-11-en-2-yl benzoate], in data set [1], the “Change in body weight during the treatment (weight at start: 100%)” value is listed as 99% ± 5%. In data set [2] (six i.v. injections (day 24, 31, 38, 44, 51, 58), 62nd day after tumor inoculation, mean % ± SEM of five mice), the “Change in tumor volume (control: 100%)” value is 86% ± 13%. Moreover, the “Survival proportion at the end of the experiment” value in data set [2] (six i.v. injections, evaluated over 72 days, five mice per group) amounted to 60%.

These data come from patent publication US20140294967A1, “STABLE NANOCOMPOSITION COMPRISING PACLITAXEL, PROCESS FOR THE PREPARATION THEREOF, ITS USE AND PHARMACEUTICAL COMPOSITIONS CONTAINING IT” (BBS Nanotechnology Llc., priority 2013, published 2014).
